# Laboratory results reported in patent US7605153B2, “Use of paullone derivatives for the production of medicaments for the treatment of mucoviscidosis and diseases related to protein addressing errors in cells” (Centre National de la Recherche Scientifique - CNRS, priority 2005, dated 2009).
# What was measured:
# delF508-CFTR [1] = molecular target: T1, delF508-CFTR (Homo sapiens, UniProt P13569, DEL508-508); experiment: iodide efflux, delF508 addressing in CF15 cells; assay type: cell-based; settings: for effect of known CFTR inhibitors on delF508 activity after treatment with kenpaullone: CF15 cells treated with kenpaullone, iodide transport; for delF508-CFTR activity (iodide efflux) normalised to MPB-91 standard treatment: CF15 cells treated 2 hrs at 37° C., stimulation 10 μM Forskoline+30 μM Genisteine, 250 μM MPB-91 for 2 hrs = 100%, alsterpaullone 100 μM
# T1 construct: CF15 human lung epithelial cells homozygous for the delF508 deletion; endogenous in cells; host or cells: CF15 human nasal/lung epithelial cells, homozygous delF508
# T1 sequence (P13569 with tags, fused parts or gaps DEL508-508): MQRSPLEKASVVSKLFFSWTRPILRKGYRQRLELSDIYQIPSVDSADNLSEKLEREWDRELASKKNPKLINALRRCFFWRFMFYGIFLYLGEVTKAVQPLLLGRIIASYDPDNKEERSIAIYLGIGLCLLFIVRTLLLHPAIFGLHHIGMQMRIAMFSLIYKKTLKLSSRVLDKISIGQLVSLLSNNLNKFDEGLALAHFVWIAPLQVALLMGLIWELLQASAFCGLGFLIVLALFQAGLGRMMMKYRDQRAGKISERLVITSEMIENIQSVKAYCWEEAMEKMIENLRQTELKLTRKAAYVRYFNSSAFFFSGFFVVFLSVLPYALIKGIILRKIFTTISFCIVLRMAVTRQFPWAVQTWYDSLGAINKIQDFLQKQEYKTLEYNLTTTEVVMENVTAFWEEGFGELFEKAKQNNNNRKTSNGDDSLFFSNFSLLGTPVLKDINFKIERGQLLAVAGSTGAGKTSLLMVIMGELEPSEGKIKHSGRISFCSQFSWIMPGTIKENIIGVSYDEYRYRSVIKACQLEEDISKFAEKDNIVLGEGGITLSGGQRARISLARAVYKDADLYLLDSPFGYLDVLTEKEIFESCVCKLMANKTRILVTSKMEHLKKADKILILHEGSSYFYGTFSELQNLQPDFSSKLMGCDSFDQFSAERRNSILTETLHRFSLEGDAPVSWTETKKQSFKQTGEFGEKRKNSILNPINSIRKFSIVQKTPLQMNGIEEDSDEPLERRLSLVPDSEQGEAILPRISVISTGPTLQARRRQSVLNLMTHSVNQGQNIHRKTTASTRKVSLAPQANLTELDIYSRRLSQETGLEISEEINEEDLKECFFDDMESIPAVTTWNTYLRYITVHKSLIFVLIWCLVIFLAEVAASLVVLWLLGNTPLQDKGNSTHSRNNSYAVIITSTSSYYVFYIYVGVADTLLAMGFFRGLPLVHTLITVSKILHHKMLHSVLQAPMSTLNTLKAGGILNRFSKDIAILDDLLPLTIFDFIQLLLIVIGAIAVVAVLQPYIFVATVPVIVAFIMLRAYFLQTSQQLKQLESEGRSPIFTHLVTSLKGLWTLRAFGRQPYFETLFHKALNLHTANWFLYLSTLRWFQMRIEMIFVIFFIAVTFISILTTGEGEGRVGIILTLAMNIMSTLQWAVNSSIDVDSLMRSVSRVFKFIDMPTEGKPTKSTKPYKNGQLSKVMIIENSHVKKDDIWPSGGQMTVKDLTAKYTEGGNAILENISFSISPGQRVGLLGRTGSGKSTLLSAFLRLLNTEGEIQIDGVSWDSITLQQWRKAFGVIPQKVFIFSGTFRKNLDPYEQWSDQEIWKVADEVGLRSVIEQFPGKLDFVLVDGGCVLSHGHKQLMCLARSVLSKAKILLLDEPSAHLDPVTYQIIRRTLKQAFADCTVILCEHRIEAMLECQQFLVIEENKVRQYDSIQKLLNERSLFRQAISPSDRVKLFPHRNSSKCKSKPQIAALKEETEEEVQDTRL
# Protocol: CF15 cells: CF15 cells are human nasal epithelial cells expressing the AF508-CFTR gene.
# The cells are incubated in an appropriate medium in 24-well plates. […] The iodide equilibrates on either side of the cell membrane. The following steps are performed using a robot (MultiPROBE, Packard): the loading medium is rinsed with efflux medium in order to eliminate extracellular radioactivity. The supernatant is collected every minute into haemolysis tubes and the medium is replaced by an equivalent volume of medium (500 μl). No drug is added to the samples taken in the first three minutes in order to obtain a stable baseline characterising the passive exit of I ions. The 7 samples that follow are obtained in the presence of the molecule to be tested. At the end of the experiment, the cells are lysed by adding 500 μl of 0.1 N NaOH/0.1% SDS (30 min), which allows determining the level of radioactivity remaining inside the cell. The radioactivity present in the haemolysis tubes is measured as counts per minute (cpm) using a gamma counter (Cobra II, Packard). […] This iodide flux is represented by a graph. In order to quantify the iodide efflux due to administration of the tested molecule, the relative flux is calculated as follows in order to ignore the basal flux: Relative velocity (min^−1)=Rpeak−Rbasal. […] The results are presented in the form of a mean+/−SEM. Student's statistical test is used to compare the effect of the various drugs with the controls (the corresponding P<0.01 values are considered to be statistically significant).
# The study of delF508-CFTR protein addressing is performed in the laboratory by using a combination of pharmacological, cellular imagery, biochemical and electrophysiological tests on CF15 human lung epithelial cells homozygous for the delF508 deletion. For each experiment, the addition of a cocktail (10 μM Forskoline+30 μM Genisteine) allows activation of the CFTR when the latter is localised at the membrane. This allows an iodide efflux to be observed if delF508 addressing has been restored.
# CHO-WT cells = experiment: MTT cytotoxicity test; assay type: cell-based, Chinese Hamster; settings: CHO-WT cells incubated 2 hrs, different concentrations
# Protocol: CHO-WT cells: CHO (Chinese Hamster Ovary) cells are fibroblasts transfected with the wild-type CFTR gene (CFTR-WT). These cells will therefore overexpress the CFTR protein.
# The MTT cytotoxicity test is a […] test based on the capacity of mitochondrial dehydrogenases to metabolise MTT (a yellow tetrazolium salt) into formazan (purple). The absorbance is proportional to the concentration of converted dye and can then be measured by spectrophotometry. The cells are incubated in 96-well microplates in the presence of the agent to be tested for 2 hours. Three controls are performed: 100% live cells: cells without any agent; 0% live cells: cells left under normal atmosphere; blank: medium without cells. The cells are rinsed with RPMI medium without phenol red in order for the colour of the medium not to interfere with absorbance measurements. They are then incubated for 4 hours with 100 μl RPMI solution supplemented with MTT (0.5 mg/ml). The medium is eliminated, 100 μl DMSO is added which permit to dissolve the converted dye (formazan). The absorbance is measured by spectrophotometry at 570 nm (purple); 630 nm (background noise). In order to ignore the background noise, the following calculation is performed: DOreelle=DO570nm−DO630nm. The results are then normalised with respect to the controls (100% and 0% live cells) and presented in the form of a mean+/−SEM. […]
# delF508-CFTR [2] = molecular target: T1, delF508-CFTR; experiment: immunolabelling, cellular localisation of delF508-CFTR in CF15 cells; assay type: cell-based; settings: 100 μM
# Protocol: Immunolabelling allows visualising the cellular localisation of the CFTR protein by an anti-CFTR primary antibody (Ab), and a secondary Cy3-labelled fluorescent antibody directed against the primary antibody.
# The cells are first seeded on cover slips in an appropriate culture medium. The cells are then washed 3 times with TBS (157 mM NaCl, […] Tris base, pH 7.4) of 5 min. each time and then fixed by adding 3% TBS-paraformaldehyde for 20 min. After 3 washes with TBS (5 min), the cells are incubated with 0.1% TBS-triton (10 min) to make holes in the cell membrane, and then washed 3 times with TBS before being exposed to 0.5% TBS-BSA-0.05% saponin for 1 hr. The cells are then incubated with the primary anti-CFTR C terminal antibody (2 μg/ml) for 1 hr. The cells are washed 3 times (5 min. each) with TBS-BSA-saponin before incubating with the GAM-cy3 secondary antibody ( 1/400) for 1 hr. After 2 TBS washes (5 min. each), the nuclei are labelled by incubating with Topro3 ( 1/1,000) for 5 min. Finally, the cover slips can be mounted on a glass slide after 3 final TBS washes of 5 min. each. The slides are observed with a confocal microscope (Bio-Rad) using laser excitation at appropriate wave-lengths. In order to differentiate Cy3 from Topro3 labelling, the colour of the Topor3 fluorescence has been changed to blue (colour of the nuclei). […]
# wild-type CFTR [3] = molecular target: T2, wild-type CFTR (Homo sapiens, UniProt P13569); experiment: iodide efflux, CFTR addressing in Calu-3 cells after 2 hrs treatment; assay type: cell-based; settings: Calu-3 cells treated for 2 hrs, 100 μM
# T2 construct: Calu-3 cells are human lung epithelial cells expressing the wild-type CFTR gene; endogenous in cells; host or cells: Calu-3 human lung epithelial cells
# T2 sequence (P13569 whole entry): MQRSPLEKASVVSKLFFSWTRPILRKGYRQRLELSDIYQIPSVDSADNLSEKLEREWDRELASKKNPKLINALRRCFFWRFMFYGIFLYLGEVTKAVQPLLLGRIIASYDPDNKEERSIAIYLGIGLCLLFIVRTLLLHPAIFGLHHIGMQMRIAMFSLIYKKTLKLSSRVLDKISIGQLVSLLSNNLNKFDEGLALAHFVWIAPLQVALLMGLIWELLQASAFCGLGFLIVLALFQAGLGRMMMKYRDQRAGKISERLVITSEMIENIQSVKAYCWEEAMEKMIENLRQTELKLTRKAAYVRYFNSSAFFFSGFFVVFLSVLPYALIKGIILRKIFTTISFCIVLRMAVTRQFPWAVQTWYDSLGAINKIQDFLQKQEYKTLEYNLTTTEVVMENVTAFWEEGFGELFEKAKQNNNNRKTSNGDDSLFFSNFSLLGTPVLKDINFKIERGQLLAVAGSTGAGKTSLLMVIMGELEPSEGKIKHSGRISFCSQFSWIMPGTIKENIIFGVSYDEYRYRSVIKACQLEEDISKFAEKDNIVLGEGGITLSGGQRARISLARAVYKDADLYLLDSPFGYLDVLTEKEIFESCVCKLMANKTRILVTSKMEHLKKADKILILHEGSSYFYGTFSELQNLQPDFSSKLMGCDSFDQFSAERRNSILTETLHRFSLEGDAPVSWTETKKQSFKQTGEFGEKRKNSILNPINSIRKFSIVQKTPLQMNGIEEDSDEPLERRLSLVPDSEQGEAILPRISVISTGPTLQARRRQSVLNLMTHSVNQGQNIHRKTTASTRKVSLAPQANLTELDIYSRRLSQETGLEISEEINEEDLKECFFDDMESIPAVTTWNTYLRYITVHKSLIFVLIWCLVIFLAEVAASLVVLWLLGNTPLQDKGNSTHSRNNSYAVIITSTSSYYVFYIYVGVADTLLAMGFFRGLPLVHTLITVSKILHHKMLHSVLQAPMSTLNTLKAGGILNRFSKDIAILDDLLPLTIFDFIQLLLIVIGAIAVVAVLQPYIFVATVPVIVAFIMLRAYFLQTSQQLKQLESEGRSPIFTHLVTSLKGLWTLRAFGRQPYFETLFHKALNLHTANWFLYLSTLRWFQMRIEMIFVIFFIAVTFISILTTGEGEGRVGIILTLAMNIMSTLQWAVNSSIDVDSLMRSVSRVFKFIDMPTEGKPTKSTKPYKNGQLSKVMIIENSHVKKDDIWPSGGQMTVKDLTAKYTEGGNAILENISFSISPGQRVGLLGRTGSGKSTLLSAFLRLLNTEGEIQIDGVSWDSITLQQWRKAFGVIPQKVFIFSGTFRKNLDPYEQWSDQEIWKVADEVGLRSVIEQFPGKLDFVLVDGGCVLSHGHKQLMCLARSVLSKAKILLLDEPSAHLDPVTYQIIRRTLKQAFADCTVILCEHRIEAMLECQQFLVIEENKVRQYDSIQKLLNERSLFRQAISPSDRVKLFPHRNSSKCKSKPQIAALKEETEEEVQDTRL
# Protocol: (§1) Calu-3 cells: Calu-3 cells are human lung epithelial cells expressing the wild-type CFTR gene.
# (§2) Measurements of chloride ion transport in the cells were performed using the radioactive iodide efflux technique (Becq et al., Journal of Biological Chemistry 274, 27415-27425 (1999); Dormer et al., Journal of Cell Science 114, 4073-4081 (2001). The ^125I tracer is incorporated into the intracellular milieu. Then, the quantity of radiotracer coming out of the cell is then measured after adding various pharmacological agents. Iodide is used as a tracer of chloride ion transport. ^125I has the advantage of being short-lived compared to other markers such as ^35Cl (respective half-lives: […] and 300,000 years).
# (§3) The cells are incubated in an appropriate medium in 24-well plates. The cells are rinsed twice with efflux medium (136.6 mM NaCl, 5.4 mM KCl, 0.3 mM KH2PO4, 0.3 mM NaH2PO4, 4.2 mM NaHCO3, 1.3 mM CaCl2, 0.5 mM MgCl2, 0.4 mM MgSO4, 10 mM HEPES, 5.6 mM D-glucose) in order to eliminate dead cells, which release radioactivity in an anarchic fashion. […] The following steps are performed using a robot (MultiPROBE, Packard): the loading medium is rinsed with efflux medium in order to eliminate extracellular radioactivity. […] The radioactivity present in the haemolysis tubes is measured as counts per minute (cpm) using a gamma counter (Cobra II, Packard). […]
# [4] = in vivo; cited from earlier work
# wild-type CFTR [5] = molecular target: T2, wild-type CFTR; experiment: iodide efflux, CFTR activity in Calu-3 cells (test as activator); assay type: cell-based; settings: n=8, controls forskoline 5 μM, MPB-91 250 μM
# Protocol: as §1, §2, §3
# GSK-3 = settings: cited from earlier work
structure (smiles),measurement,setting,value
O=C(O)c1ccccc1Nc1ccccc1 [DPC],effect of known CFTR inhibitors on delF508 activity after treatment with kenpaullone,delF508-CFTR [1],blocked
O=C1Cc2c([nH]c3ccc([N+](=O)[O-])cc23)-c2ccccc2N1 [alsterpaullone],delF508-CFTR activity (iodide efflux) normalised to MPB-91 standard treatment,delF508-CFTR [1],no effect
O=C1Cc2c([nH]c3ccc(Br)cc23)-c2ccccc2N1 [kenpaullone],cell viability (MTT),CHO-WT cells,viable at all concentrations
same,localisation of delF508 protein,delF508-CFTR [2],redirect the delF508 protein towards the membrane
same,CFTR activity after treatment (wild-type CFTR addressing),wild-type CFTR [3],not significantly different from the controls
same,EC50,delF508-CFTR [1],22 ± 1.7 µM
same,delF508-CFTR activity (iodide efflux) normalised to MPB-91 standard treatment,delF508-CFTR [1],higher than that obtained with MPB-91
same,toxicity in animals,[4],only very slight toxicity
same,activation of wild-type CFTR or other anionic transporter,wild-type CFTR [5],not found to be an activator
same,selectivity for GSK-3 inhibition,GSK-3,highly selective
COc1ccc(Cl)cc1C(=O)NCCc1ccc(S(=O)(=O)NC(=O)NC2CCCCC2)cc1 [glibenclamide],effect of known CFTR inhibitors on delF508 activity after treatment with kenpaullone,delF508-CFTR [1],blocked
O=S(=O)(O)c1cc(N=C=S)ccc1C=Cc1ccc(N=C=S)cc1S(=O)(=O)O [DIDS],effect of known CFTR inhibitors on delF508 activity after treatment with kenpaullone,delF508-CFTR [1],insensitive
